Reference: US20150105252A1, “SUBSTITUTED PYRAZOLES AS HERBICIDES” (E I DU PONT DE NEMOURS AND COMPANY, priority 2013, published 2015)

Experiments:
[1] = tested on: wheat; test: Test A postemergence; type: in vivo, Triticum aestivum
Procedure, shortened: (§1)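 Seeds were sown in a loam soil–sand blend and given a directed soil spray preemergence; postemergence plants at 2–10 cm, one- to two-leaf stage, were sprayed with compound in non-phytotoxic solvent with surfactant. After about 10 days in a greenhouse, injury was visually rated against untreated controls (0 = no effect, 100 = complete control).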

[2] = tested on: corn; test: Test A preemergence; type: in vivo, Zea mays; details: preemergence
Procedure, shortened: as §1

[3] = tested on: barnyardgrass; test: Test A postemergence; type: in vivo, Echinochloa crus-galli
Procedure, shortened: as §1

[4] = tested on: velvetleaf; test: Test A preemergence; type: in vivo, Abutilon theophrasti; details: preemergence
Procedure, shortened: as §1

[5] = tested on: pigweed; test: Test A preemergence; type: in vivo, Amaranthus retroflexus; details: preemergence
Procedure, shortened: as §1

[6] = tested on: sedge, umbrella; test: Test B flood; type: in vivo, Cyperus difformis; details: 250 g ai/ha, visual rating on 0 to 100 scale (0 no effect, 100 complete control), 13 to 15 days
Procedure, shortened: (§2)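 Visual ratings (0 = no effect, 100 = complete control) versus untreated controls were taken 13–15 days after treatment of greenhouse plants. Treatment was added to paddy water held at 3 cm depth on 2-leaf-stage seedlings.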

[7] = tested on: crabgrass, large; test: Test A preemergence; type: in vivo, Digitaria sanguinalis; details: preemergence
Procedure, shortened: as §1

[8] = tested on: foxtail, giant; test: Test A preemergence; type: in vivo, Setaria faberii; details: preemergence
Procedure, shortened: as §1

[9] = tested on: velvetleaf; test: Test A postemergence; type: in vivo, Abutilon theophrasti
Procedure, shortened: as §1

[10] = tested on: corn; test: Test A postemergence; type: in vivo, Zea mays
Procedure, shortened: as §1

[11] = tested on: morningglory; test: Test A preemergence; type: in vivo, Ipomoea spp.; details: preemergence
Procedure, shortened: as §1

[12] = tested on: ducksalad; test: Test B flood; type: in vivo, Heteranthera limosa; details: 250 g ai/ha, visual rating on 0 to 100 scale (0 no effect, 100 complete control), 13 to 15 days
Procedure, shortened: as §2

[13] = tested on: barnyardgrass; test: Test B flood; type: in vivo, Echinochloa crus-galli; details: 250 g ai/ha, visual rating on 0 to 100 scale (0 no effect, 100 complete control), 13 to 15 days
Procedure, shortened: as §2

[14] = tested on: pigweed; test: Test A postemergence; type: in vivo, Amaranthus retroflexus
Procedure, shortened: as §1

[15] = tested on: foxtail, giant; test: Test A postemergence; type: in vivo, Setaria faberii
Procedure, shortened: as §1

[16] = tested on: rice; test: Test B flood; type: in vivo, Oryza sativa; details: 250 g ai/ha, visual rating on 0 to 100 scale (0 no effect, 100 complete control), 13 to 15 days
Procedure, shortened: as §2

[17] = tested on: wheat; test: Test A preemergence; type: in vivo, Triticum aestivum; details: preemergence
Procedure, shortened: as §1

[18] = tested on: morningglory; test: Test A postemergence; type: in vivo, Ipomoea spp.
Procedure, shortened: as §1

[19] = tested on: barnyardgrass; test: Test A preemergence; type: in vivo, Echinochloa crus-galli; details: preemergence
Procedure, shortened: as §1

[20] = tested on: crabgrass, large; test: Test A postemergence; type: in vivo, Digitaria sanguinalis
Procedure, shortened: as §1

[21] = Postemergence, 500 g ai/ha, visual rating after approx. 10 days, 0 to 100 scale (0 no effect, 100 complete control)
[22] = postemergence, 125 g ai/ha, about 10 days, visual rating on 0 to 100 scale (0 no effect, 100 complete control)
[23] = 125 g ai/ha, visual injury, 0 to 100 scale, approx. 10 days
[24] = 500 g ai/ha, visual injury after approx. 10 days, 0 to 100 scale (0 no effect, 100 complete control)

Compound | Wheat plant response rating [1, 21] | Wheat plant response rating [1, 22] | Corn plant response rating [2, 23] | Corn plant response rating [2, 24] | Barnyardgrass plant response rating [3, 21] | Barnyardgrass plant response rating [3, 22] | Velvetleaf plant response rating [4, 23] | Velvetleaf plant response rating [4, 24] | Pigweed plant response rating [5, 23] | Pigweed plant response rating [5, 24] | Plant response rating, Sedge, Umbrella [6] | Crabgrass, Large plant response rating [7, 23] | Crabgrass, Large plant response rating [7, 24] | Foxtail, Giant plant response rating [8, 23] | Foxtail, Giant plant response rating [8, 24] | Velvetleaf plant response rating [9, 21] | Velvetleaf plant response rating [9, 22] | Corn plant response rating [10, 21] | Corn plant response rating [10, 22] | Morningglory plant response rating [11, 23] | further results
CCCc1cc(-c2ccc(C(F)(F)F)cc2)nn1Cc1ccnc(C(F)(F)F)c1 [Compound 113] | 20 | 20 | 10 | 10 | 20 | 10 | 30 | 40 | 100 | 100 | 70 | 80 | 100 | 80 | 100 | 100 | 40 | 20 | 20 | 40 | Morningglory plant response rating [11, 24]: 70; Plant response rating, Ducksalad [12]: 60; Plant response rating, Barnyardgrass [13]: 40; Pigweed plant response rating [14, 21]: 100; Pigweed plant response rating [14, 22]: 60; Foxtail, Giant plant response rating [15, 21]: 40; Foxtail, Giant plant response rating [15, 22]: 20; Plant response rating, Rice [16]: 30; Wheat plant response rating [17, 23]: 10; Wheat plant response rating [17, 24]: 30; Morningglory plant response rating [18, 21]: 100; Morningglory plant response rating [18, 22]: 40; Barnyardgrass plant response rating [19, 23]: 20; Barnyardgrass plant response rating [19, 24]: 60; Crabgrass, Large plant response rating [20, 21]: 40; Crabgrass, Large plant response rating [20, 22]: 20
CCCNC(=O)c1cc(CC)n(Cc2cc(C(F)(F)F)nn2CC)n1 [Compound 117] | 0 | 0 | 0 | 10 | 80 | 40 | 0 | 0 | 90 | 100 | 75 | 90 | 100 | 70 | 100 | 80 | 40 | 50 | 20 | 30 | Morningglory plant response rating [11, 24]: 100; Plant response rating, Ducksalad [12]: 50; Plant response rating, Barnyardgrass [13]: 0; Pigweed plant response rating [14, 21]: 80; Pigweed plant response rating [14, 22]: 50; Foxtail, Giant plant response rating [15, 21]: 90; Foxtail, Giant plant response rating [15, 22]: 20; Plant response rating, Rice [16]: 20; Wheat plant response rating [17, 23]: 0; Wheat plant response rating [17, 24]: 0; Morningglory plant response rating [18, 21]: 90; Morningglory plant response rating [18, 22]: 60; Barnyardgrass plant response rating [19, 23]: 30; Barnyardgrass plant response rating [19, 24]: 80; Crabgrass, Large plant response rating [20, 21]: 80; Crabgrass, Large plant response rating [20, 22]: 20
